Laboratory results: paper PMC5344125 (Nano letters, 2016)

Test system: LS174T secreted proteases
Experiment: Secreted protease activity assay with conditioned supernatant
Type: biochemical, human
Conditions: fluorescently quenched substrates, MMP inhibitor added

SMILES: CNC(=O)[C@@H](NC(=O)[C@H](CC(C)C)[C@H](O)C(=O)NO)C(C)(C)C [Marimastat]
- in vitro proteolysis of substrates in the presence of Marimastat: abrogated
